Results: patent US20080125424A1, “Derivatives of urea and related diamines, methods for their manufacture, and uses therefor” (priority 2006, published 2008)

Target: T1, human parathyroid cell Ca2+ receptor (hPCaR) (Homo sapiens, UniProt P41180)
T1 construct: expressed in transfected cells
T1 sequence (P41180 20-1078): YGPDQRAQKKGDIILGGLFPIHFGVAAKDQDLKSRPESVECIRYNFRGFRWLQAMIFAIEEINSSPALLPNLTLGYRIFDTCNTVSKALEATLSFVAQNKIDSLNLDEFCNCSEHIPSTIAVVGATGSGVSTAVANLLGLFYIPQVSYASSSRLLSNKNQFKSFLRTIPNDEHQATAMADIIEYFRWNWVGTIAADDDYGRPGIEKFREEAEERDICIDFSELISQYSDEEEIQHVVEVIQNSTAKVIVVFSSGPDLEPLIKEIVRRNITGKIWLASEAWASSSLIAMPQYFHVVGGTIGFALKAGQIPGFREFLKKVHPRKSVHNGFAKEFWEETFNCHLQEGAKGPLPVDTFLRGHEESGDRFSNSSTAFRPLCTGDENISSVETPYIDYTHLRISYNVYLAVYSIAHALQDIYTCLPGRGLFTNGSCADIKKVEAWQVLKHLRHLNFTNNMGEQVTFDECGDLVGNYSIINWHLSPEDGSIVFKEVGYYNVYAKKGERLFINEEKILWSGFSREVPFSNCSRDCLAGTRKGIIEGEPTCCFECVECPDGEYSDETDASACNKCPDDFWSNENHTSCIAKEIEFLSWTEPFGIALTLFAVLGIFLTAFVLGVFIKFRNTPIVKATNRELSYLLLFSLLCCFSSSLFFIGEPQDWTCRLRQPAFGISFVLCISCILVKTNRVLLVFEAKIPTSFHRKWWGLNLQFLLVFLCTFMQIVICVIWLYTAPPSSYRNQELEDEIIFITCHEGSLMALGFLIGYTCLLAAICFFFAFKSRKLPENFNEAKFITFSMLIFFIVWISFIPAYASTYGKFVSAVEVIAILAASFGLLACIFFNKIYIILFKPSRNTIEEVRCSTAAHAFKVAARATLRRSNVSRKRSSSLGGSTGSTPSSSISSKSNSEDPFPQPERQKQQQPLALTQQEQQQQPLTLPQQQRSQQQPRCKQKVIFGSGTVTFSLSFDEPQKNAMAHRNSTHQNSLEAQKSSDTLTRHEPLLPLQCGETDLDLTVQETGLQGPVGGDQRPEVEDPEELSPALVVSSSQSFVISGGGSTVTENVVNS
Test: [Ca2+]i fluorescence assay in HEK 293 4.0-7 cells expressing hPCaR
Type: cell-based
Conditions: buffer with 1 mM CaCl2
Protocol: The activities of the compounds of the present invention on calcium receptors were measured. In one embodiment, the measurement was performed in accordance with the method described in Example 4 of Nemeth et al., PCT/US95/13704 (International Publication No. WO96/12697) herein incorporated by reference.
A 4.0-kb NotI-HindIII fragment of the human parathyroid cell Ca^2+ receptor (hPCaR) cDNA was subcloned into the mammalian expression vector pCEP4 (Invitrogen) containing the hygromycin-resistant gene as a selectable marker. This plasmid was transfected into HEK 293 cells by calcium phosphate precipitation. Transfected cells were grown in Dulbecco's modified Eagle's medium containing 10% fetal bovine serum and hygromycin (200 μg/mL). Hygromycin-resistant colonies were subcloned and assayed for hPCaR mRNA by solution hybridization using a ^32P-labeled RNA probe complementary to the (4.0 kb) hPCaR sequence (Garrett, et al., J. Biol. Chem. 270, 12919-12925 (1995)). Clone 7 was used to assess the effects of compounds on [Ca^2+]i. This stably transfected cell line was termed HEK 293 4.0-7. For measurements of [Ca^2+]i, the cells were recovered from tissue culture flasks by brief treatment with Versene (Invitrogen; Containing 0.2 g/L EDTA.4Na in phosphate-buffered saline) and then seeded in collagen coated 384-well plates (BD Biosciences) at 20K cells per well in the growth media (same as above). Cells were grown in 37c TC incubator overnight. Then, the media was discarded and cells were loaded with 1× dye from Ca^2+ Assay Kit I (BD Biosciences) in parathyroid cell buffer (126 mM NaCl, 4 mM KCl, 1 mM MgSO4, 0.7 mM K2HPO4/KH2PO4, 20 mM HEPES.NaOH (pH 7.45)) containing 0.5% BSA and 1 mM CaCl2. Cells were loaded at room temperature for 90 minutes. Each test compound was added to the cells and the fluorescence was recorded by using excitation and emission wavelengths of 485 and 530 nm, respectively.

Structure (SMILES) | EC50 [nM]
CS(=O)(=O)Nc1ccc(-c2csc(NC(=O)N(CCCC(N)=O)CCC(c3ccccc3)c3ccccc3)n2)cc1 [Example 68, 1-(4-amino-4-oxobutyl)-1-(3,3-diphenylpropyl)-3-(4-(4-(methylsulfonamido)phenyl)thiazol-2-yl)urea] | < 100
O=C(CCCN(CCC(c1ccccc1)c1ccccc1)C(=O)Nc1nc2ccccc2s1)N[C@@H]1CCCNC1 [Example 71, (R)-3-(benzo[d]thiazol-2-yl)-1-(3,3-diphenylpropyl)-1-(4-oxo-4-(piperidin-3-ylamino)butyl)urea] | < 100
CS(=O)(=O)c1ccc(-c2nc(NC(=O)N(CCCC(=O)O)CCC(c3ccccc3)c3ccccc3)sc2Cl)cc1 [Example 72, 4-(3-(5-chloro-4-(4-(methylsulfonyl)phenyl)thiazol-2-yl)-1-(3,3-diphenylpropyl)ureido)butanoic acid] | < 100
O=C(CCCN(CCC(c1ccccc1)c1ccccc1)C(=O)Nc1nc2ccccc2s1)NC1CCNCC1 [Example 75, 3-(benzo[d]thiazol-2-yl)-1-(3,3-diphenylpropyl)-1-(4-oxo-4-(piperidin-4-ylamino)butyl)urea] | < 100
O=C(CCCN(CCC(c1ccccc1)c1ccccc1)C(=O)Nc1nc(-c2ccccc2)cs1)N[C@@H]1CCCNC1 [Example 76, (R)-1-(3,3-diphenylpropyl)-1-(4-oxo-4-(piperidin-3-ylamino)butyl)-3-(4-phenylthiazol-2-yl)urea] | < 100
O=C(CCCN(CCC(c1ccccc1)c1ccccc1)C(=O)Nc1nc(-c2ccccc2)cs1)N[C@H]1CCCNC1 [Example 78, (S)-1-(3,3-diphenylpropyl)-1-(4-oxo-4-(piperidin-3-ylamino)butyl)-3-(4-phenylthiazol-2-yl)urea] | < 100
CS(=O)(=O)c1ccc(-c2csc(NC(=O)N(CCCC(=O)O)CCC(c3ccccc3)c3ccccc3)n2)cc1 [Example 79, 4-(1-(3,3-diphenylpropyl)-3-(4-(4-(methylsulfonyl)phenyl)thiazol-2-yl)ureido)butanoic acid] | < 100
NC(=O)CCCN(CCC(c1ccccc1)c1ccccc1)C(=O)Nc1nc(-c2ccccc2)c(Cl)s1 [Example 81, 1-(4-amino-4-oxobutyl)-3-(5-chloro-4-phenylthiazol-2-yl)-1-(3,3-diphenylpropyl)urea] | < 100
CCNC(=O)CCCN(CCC(c1ccccc1)c1ccccc1)C(=O)Nc1nc2ccccc2s1 [Example 85, 3-(benzo[d]thiazol-2-yl)-1-(3,3-diphenylpropyl)-1-(4-(ethylamino)-4-oxobutyl)urea] | < 100
O=C(CCCN(CCC(c1ccccc1)c1ccccc1)C(=O)Nc1nc2ccccc2s1)NCc1ccccc1 [Example 86, 3-(benzo[d]thiazol-2-yl)-1-(4-(benzylamino)-4-oxobutyl)-1-(3,3-diphenylpropyl)urea] | < 100
CN(C)C(=O)N1CCN(C(=O)CCCN(CCC(c2ccccc2)c2ccccc2)C(=O)Nc2nc3ccccc3s2)CC1 [Example 87, 3-(benzo[d]thiazol-2-yl)-1-(4-(4-(dimethylcarbamoyl)piperazin-1-yl)-4-oxobutyl)-1-(3,3-diphenylpropyl)urea] | < 100

The next lines start with the values.

EC50 [nM] | Structure (SMILES)
< 100 | CS(=O)(=O)Nc1ccc(-c2csc(NC(=O)N(CCCC(=O)N[C@@H]3CCCNC3)CCC(c3ccccc3)c3ccccc3)n2)cc1 [Example 67, (R)-1-(3,3-diphenylpropyl)-3-(4-(4-(methylsulfonamido)phenyl)thiazol-2-yl)-1-(4-oxo-4-(piperidin-3-ylamino)butyl)urea]
< 100 | CC(CN(CCC(c1ccccc1)c1ccccc1)C(=O)Nc1nc(-c2ccccc2)cs1)C(=O)O (stereo not shown) [Example 69, 3-(1-(3,3-diphenylpropyl)-3-(4-phenylthiazol-2-yl)ureido)-2-methylpropanoic acid]
< 100 | CS(=O)(=O)Nc1ccc(-c2csc(NC(=O)N(CCCC(=O)NC3CCNCC3)CCC(c3ccccc3)c3ccccc3)n2)cc1 [Example 70, 1-(3,3-diphenylpropyl)-3-(4-(4-(methylsulfonamido)phenyl)thiazol-2-yl)-1-(4-oxo-4-(piperidin-4-ylamino)butyl)urea]
< 100 | CS(=O)(=O)Nc1ccc(-c2nc(NC(=O)N(CCCC(=O)O)CCC(c3ccccc3)c3ccccc3)sc2Cl)cc1 [Example 73, 4-(3-(5-chloro-4-(4-(methylsulfonamido)phenyl)thiazol-2-yl)-1-(3,3-diphenylpropyl)ureido)butanoic acid]
< 100 | O=C(CCCN(CCC(c1ccccc1)c1ccccc1)C(=O)Nc1nc2ccccc2s1)N[C@H]1CCCNC1 [Example 74, (S)-3-(benzo[d]thiazol-2-yl)-1-(3,3-diphenylpropyl)-1-(4-oxo-4-(piperidin-3-ylamino)butyl)urea]
< 100 | CS(=O)(=O)Nc1ccc(-c2csc(NC(=O)N(CCC(N)=O)CCC(c3ccccc3)c3ccccc3)n2)cc1 [Example 77, 1-(3-amino-3-oxopropyl)-1-(3,3-diphenylpropyl)-3-(4-(4-(methylsulfonamido)phenyl)thiazol-2-yl)urea]
< 100 | NC(=O)CCCN(CCC(c1ccccc1)c1ccccc1)C(=O)Nc1nc2ccccc2s1 [Example 80, 1-(4-amino-4-oxobutyl)-3-(benzo[d]thiazol-2-yl)-1-(3,3-diphenylpropyl)urea]
< 100 | O=C(CCCN(CCC(c1ccccc1)c1ccccc1)C(=O)Nc1nc2ccccc2s1)N1CCNCC1 [Example 82, 3-(benzo[d]thiazol-2-yl)-1-(3,3-diphenylpropyl)-1-(4-oxo-4-(piperazin-1-yl)butyl)urea]
< 100 | O=C(O)CCCN(CCC(c1ccccc1)c1ccccc1)C(=O)Nc1nc(-c2ccccc2)c(Cl)s1 [Example 83, 4-(3-(5-chloro-4-phenylthiazol-2-yl)-1-(3,3-diphenylpropyl)ureido)butanoic acid]
< 100 | CC(=O)N1CCN(C(=O)CCCN(CCC(c2ccccc2)c2ccccc2)C(=O)Nc2nc(-c3ccccc3)cs2)CC1 [Example 84, 1-(4-(4-acetylpiperazin-1-yl)-4-oxobutyl)-1-(3,3-diphenylpropyl)-3-(4-phenylthiazol-2-yl)urea]
< 100 | CN(C)C(=O)CCCN(CCC(c1ccccc1)c1ccccc1)C(=O)Nc1nc2ccccc2s1 [Example 89, 3-(benzo[d]thiazol-2-yl)-1-(4-(dimethylamino)-4-oxobutyl)-1-(3,3-diphenylpropyl)urea]
100 to 1000 | C[C@H]1CN(C(=O)CCCN(CCC(c2ccccc2)c2ccccc2)C(=O)Nc2nc(-c3ccccc3)cs2)CCN1 [Example 90, (S)-1-(3,3-diphenylpropyl)-1-(4-(3-methylpiperazin-1-yl)-4-oxobutyl)-3-(4-phenylthiazol-2-yl)urea]
100 to 1000 | C[C@@H]1CNCCN1C(=O)CCCN(CCC(c1ccccc1)c1ccccc1)C(=O)Nc1nc(-c2ccccc2)cs1 [Example 91, (R)-1-(3,3-diphenylpropyl)-1-(4-(2-methylpiperazin-1-yl)-4-oxobutyl)-3-(4-phenylthiazol-2-yl)urea]
100 to 1000 | N#Cc1ccc(-c2nc(NC(=O)N(CCCC(=O)O)CCC(c3ccccc3)c3ccccc3)sc2Cl)cc1 [Example 92, 4-(3-(5-chloro-4-(4-cyanophenyl)thiazol-2-yl)-1-(3,3-diphenylpropyl)ureido)butanoic acid]
